Consider 2 compounds from publication PMC12086673, “Selective inhibition of NikA mediated Ni(II) import in E. coli by the Indium(III)-EDTA complex” (Metallomics: Integrated Biometal Science, 2025).

The assay deals with T1, NikA (Escherichia coli, UniProt P33590).
T1 construct: wild type NikA, purified from periplasm (56 304 Da)
The assay is described as follows: isothermal titration calorimetry, one-site model. Format: binding.

T1 sequence (P33590 23-524): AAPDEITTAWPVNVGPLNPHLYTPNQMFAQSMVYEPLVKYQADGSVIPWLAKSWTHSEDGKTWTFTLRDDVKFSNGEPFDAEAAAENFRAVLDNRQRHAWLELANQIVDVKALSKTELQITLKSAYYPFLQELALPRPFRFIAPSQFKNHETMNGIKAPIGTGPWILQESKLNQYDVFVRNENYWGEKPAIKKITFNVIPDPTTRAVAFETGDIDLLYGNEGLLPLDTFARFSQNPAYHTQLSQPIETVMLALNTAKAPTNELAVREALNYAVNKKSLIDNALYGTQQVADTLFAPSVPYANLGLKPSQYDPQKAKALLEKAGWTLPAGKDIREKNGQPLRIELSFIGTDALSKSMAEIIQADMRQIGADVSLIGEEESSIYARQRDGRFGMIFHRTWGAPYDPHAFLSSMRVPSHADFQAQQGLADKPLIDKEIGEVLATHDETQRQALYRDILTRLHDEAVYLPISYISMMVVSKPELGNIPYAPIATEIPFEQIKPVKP

`O=C([O-])CN(CCN(CC(=O)[O-])CC(=O)O)CC(=O)[O-].[Fe+3]` [Fe(III)-EDTA] showed a Kd of 7.4 ± 0.7 µM.
For `O=C([O-])CN(CCN(CC(=O)[O-])CC(=O)O)CC(=O)[O-].[In+3]` [In(III)-EDTA] the value was 17.3 ± 3 µM.
